In assay [1] the target is Recombinant Human NF-Kappab-Inducing Kinase (NIK/MAP3K14) (Homo sapiens, UniProt Q99558). Description: Inhibition of auto-phosphorylation of recombinant human NIK/MAP3K14 (AlphaScreen). To be noted: NIK/MAP3K14 auto-phosphorylation, 5 microM ATP, 1 nM enzyme, 2 h at 25° C.; average of values; read-out: Assay 1 IC50. The class given is biochemical. On the procedure: Biological Assay 1: Inhibition of Auto-Phosphorylation of Recombinant Human NF-Kappab-Inducing Kinase (NIK/MAP3K14) Activity (AlphaScreen®)
NIK/MAP3K14 auto-phosphorylation activity was measured using the AlphaScreen® ((αscreen) format (Perkin ElmeR). All compounds tested were dissolved in dimethyl sulfoxide (DMSO) and further dilutions were made in assay buffer. Final DMSO concentration was 0.7% (v/v) in assays. Assay buffer was 50 mM Tris pH 7.5 containing 1 mM EGTA (ethylene glycol tetraacetic acid), 1 mM DTT (dithiothreitol), 0.1 mM Na3VO4, 5 mM MgCl2, 0.01% Tween® 20. Assays were carried out in 384 well Proxiplates (Perkin ElmeR). Incubations consisted of compound, 5 microM Adenosine-5′-triphosphate (ATP), and 1 nM NIK/MAP3K14. Incubations were initiated by addition of GST-tagged NIK/MAP3K14 enzyme, carried out for 2 h at 25° C. and terminated by addition of stop buffer containing anti-phospho-IKK Ser176/180 antibody. Protein A Acceptor and Glutathione-donor beads were added before reading using an EnVision® Multilabel Plate Reader (Perkin ElmeR). Signal obtained in the wells was normalized using high (full enzyme activity, 0.7% DMSO) and low controls (no enzyme activity, 0.7% DMSO, no ATP). IC50's were determined by fitting a sigmoidal curve to % inhibition of control versus Log10 compound concentration.
On the technique in general: In Alpha technology, singlet oxygen from a donor bead excites a nearby acceptor bead.

For assay [2], the system named is p-IKKα levels in L363 (NIK translocated multiple myeloma) cells. Description: Effect of compounds on p-IKKα levels in L363 cells (AlphaLISA SureFire Ultra). The class given is cell-based. The conditions noted are these: Homo sapiens, L-363; L363 cells, BAFF stimulated, MG132, 6 h; average of values; read-out: Assay 2 IC50. On the procedure: Biological Assay 2: Effect of Compounds on p-IKKα Levels in L363 (NIK Translocated Multiple Myeloma) Cells
All compounds tested were dissolved and serially diluted in DMSO, 1:3 dilution for 11 points in an Echo compatible plate. 100% DMSO is added to columns 12 and 24 of the plate to serve as high and low signal controls. This compound plate was used to spot 20 nl of compound or DMSO into a Greiner 384 well TC plate (781080). Final DMSO concentration was […] (v/v) in cell assays. Human L363 cells (ATCC) were cultured in RPMI 1640 medium supplemented with GlutaMax, non-essential amino acids, sodium pyruvate and 10% fetal bovine serum. Cells were routinely maintained at densities of 0.2×10^6 cells per ml −2×10^6 cells per ml at 37° C. in a humidified 5% CO2 atmosphere incubator. Cells were passaged twice a week splitting back to obtain the low density. The day before the assay, cells were washed twice in HBSS, resuspended in DMEM+0.5% IgG and protease free BSA (Jackson Immuno Research Laboratories), +/−250 ng/ml recombinant human B-cell activating factor (BAFF/BLyS/TNFSF13B) and incubated overnight at 37° C. in a humidified 5% CO2 atmosphere (bulk stimulation with or without BAFF). The next day, cell concentration was adjusted to 1×10^7 cells/ml in DMEM+/−250 ng/ml BAFF+/−10 uM MG132 and plated at 10 ul/well into compound or DMSO spotted 384 well TC plates. Seeded cells were incubated at 37° C. in a humidified 5% CO2 atmosphere for 6 h. After 6 h, plates were removed from the incubator and cell lysis was achieved by the addition of 2.5 μl 5× lysis buffer containing protease and phosphatase inhibitors, followed by shaking on a plate shaker at room temperature for 15 min. At the end of this incubation, lysed cells were sequentially treated and incubated with acceptor and donor bead mixes according to the manufacturer's protocol for a 1 plate/2-incubation suspension cell assay (AlphaLISA SureFire Ultra p-IKKα (Ser 176/180) Assay Kit (Perkin ElmeR). Plates were read using an EnVision® Multilabel Plate Reader (Perkin ElmeR). Within an experiment, a concentration response curve for each compound was run in duplicate. Signal obtained in the test wells was normalized using high signal (BAFF stimulated cells, DMSO, MG132) and low signal (unstimulated cells, DMSO) controls. To determine the IC50, a sigmoidal curve was fitted to the plot of % inhibition versus Log10 compound concentration.

Molecules are shown by their SMILES. pIC50: −log10 of the molar value. A value given as a limit tells only on which side of the number the result lay.

Chain of Recombinant Human NF-Kappab-Inducing Kinase (NIK/MAP3K14) (Q99558 whole entry): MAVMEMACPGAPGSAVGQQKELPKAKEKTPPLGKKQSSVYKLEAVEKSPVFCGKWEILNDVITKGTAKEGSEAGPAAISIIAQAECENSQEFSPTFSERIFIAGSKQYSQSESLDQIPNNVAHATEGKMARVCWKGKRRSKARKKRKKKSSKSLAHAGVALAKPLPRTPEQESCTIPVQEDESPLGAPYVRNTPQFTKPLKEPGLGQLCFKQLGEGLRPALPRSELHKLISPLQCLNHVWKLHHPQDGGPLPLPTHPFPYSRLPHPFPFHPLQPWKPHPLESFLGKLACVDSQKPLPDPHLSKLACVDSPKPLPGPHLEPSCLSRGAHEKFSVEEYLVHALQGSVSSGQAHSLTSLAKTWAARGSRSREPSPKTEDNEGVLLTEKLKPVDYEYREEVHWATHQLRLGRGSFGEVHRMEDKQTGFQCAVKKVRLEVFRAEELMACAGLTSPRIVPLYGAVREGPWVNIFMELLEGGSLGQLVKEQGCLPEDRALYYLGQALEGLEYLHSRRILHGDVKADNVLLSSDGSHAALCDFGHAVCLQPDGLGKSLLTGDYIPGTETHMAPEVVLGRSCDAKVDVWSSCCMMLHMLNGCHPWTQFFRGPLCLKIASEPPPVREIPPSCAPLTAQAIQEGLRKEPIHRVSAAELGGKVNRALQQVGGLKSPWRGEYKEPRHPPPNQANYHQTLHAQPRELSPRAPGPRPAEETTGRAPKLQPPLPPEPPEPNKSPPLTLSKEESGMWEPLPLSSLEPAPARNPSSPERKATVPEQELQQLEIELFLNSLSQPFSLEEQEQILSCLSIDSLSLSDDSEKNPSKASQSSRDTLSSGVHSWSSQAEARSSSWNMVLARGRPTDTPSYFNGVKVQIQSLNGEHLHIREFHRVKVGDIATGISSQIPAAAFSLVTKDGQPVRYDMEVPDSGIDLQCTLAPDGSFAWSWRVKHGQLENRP

In general, pIC50 refers to the IC50 on a negative log10 scale, so that one unit is a factor of ten. `CN1CC[C@@](O)(c2cc(-c3cccc(-c4cc(C5CC5)cc(C(N)=O)n4)c3)no2)C1=O` [Example 117, (R)-4-Cyclopropyl-6-(3-(5-(3-hydroxy-1-methyl-2-oxopyrrolidin-3-yl)isoxazol-3-yl)phenyl)picolinamide]: the pIC50 was greater than 7.00 in assay [1] and 6.30 to 7.00 in assay [2].
On the same counts, the results for `CN1CCC(O)(c2cc(-c3cccc(Nc4nc5c(N)ncnc5s4)c3)on2)C1=O` (racemic) [Example 176, (R,S)-3-(5-(3-((7-Aminothiazolo[5,4-d]pyrimidin-2-yl)amino)phenyl)isoxazol-3-yl)-3-hydroxy-1-methylpyrrolidin-2-one] are less than 6.30 and less than 6.30.
Taken in the same sequence, the figures for `CN1CC[C@@](O)(c2cc(-c3cccc(-c4c[nH]c5nccnc45)c3)no2)C1=O` [Example 163, (R)-3-(3-(3-(5H-Pyrrolo[2,3-b]pyrazin-7-yl)phenyl)isoxazol-5-yl)-3-hydroxy-1-methylpyrrolidin-2-one] were greater than 7.00 and less than 6.30.
Taken in the same sequence, the figures for `CN1CC[C@@](O)(c2cc(-c3cccc(-c4ncc(N)c(C(=O)N[C@@H]5CCOC5)n4)c3)no2)C1=O` [Example 128, 5-Amino-2-(3-(5-((R)-3-hydroxy-1-methyl-2-oxopyrrolidin-3-yl)isoxazol-3-yl)phenyl)-N—((R)-tetrahydrofuran-3-yl)pyrimidine-4-carboxamide] were greater than 7.00 and less than 6.30.
With `COc1cc(C(N)=O)nc(-c2cc(-c3cc([C@]4(O)CCN(C)C4=O)on3)ccn2)c1` [Example 21, (R)-4′-(5-(3-Hydroxy-1-methyl-2-oxopyrrolidin-3-yl)isoxazol-3-yl)-4-methoxy-[2,2′-bipyridine]-6-carboxamide], the pIC50 in assay [1] was greater than 7.00; in assay [2] it was less than 6.30.
On the same counts, the results for `CN1CC[C@@](O)(c2cc(-c3cccc(-c4cc(N)c5nc[nH]c(=O)c5n4)c3)no2)C1=O` [Example 96, (R)-8-Amino-6-(3-(5-(3-hydroxy-1-methyl-2-oxopyrrolidin-3-yl)isoxazol-3-yl)phenyl)pyrido[3,2-d]pyrimidin-4(3H)-one] are greater than 7.00 and less than 6.30.
On the same counts, the results for `CC(=O)N1CC(Nc2sc(-c3cccc(-c4cc([C@]5(O)CCN(C)C5=O)on4)c3)nc2C(N)=O)C1` [Example 216, (R)-5-((1-Acetylazetidin-3-yl)amino)-2-(3-(5-(3-hydroxy-1-methyl-2-oxopyrrolidin-3-yl)isoxazol-3-yl)phenyl)thiazole-4-carboxamide] are greater than 7.00 and less than 6.30.
Turning to `CN1CC[C@@](O)(c2cc(-c3cccc(-c4ccc5occc5n4)c3)no2)C1=O` [Example 66, (R)-3-(3-(3-(Furo[3,2-b]pyridin-5-yl)phenyl)isoxazol-5-yl)-3-hydroxy-1-methylpyrrolidin-2-one], the pIC50 in assay [1] and in assay [2] was less than 6.30 in each case.
Take `CN1CC[C@@](O)(c2cc(-c3cccc(-c4cn5ccnc5cn4)c3)no2)C1=O` [Example 70, (R)-3-Hydroxy-3-(3-(3-(imidazo[1,2-a]pyrazin-6-yl)phenyl)isoxazol-5-yl)-1-methylpyrrolidin-2-one]: the pIC50 in assay [1] and in assay [2] was less than 6.30 each time.
As to `[2H]c1nc(N)c2nc(-c3cccc(-c4nc([C@]5(O)CCN(C)C5=O)cs4)c3)ccc2n1` (single isomer, unassigned) [Example 33], the pIC50 in assay [1] and in assay [2] was less than 6.30 each time.
Regarding `CN1C(=O)[C@](O)(c2cc(-c3cccc(-c4cc(C5CC5)c(N)c(C(N)=O)n4)c3)no2)C[C@H]1C(F)(F)F` [Example 178, 3-Amino-4-cyclopropyl-6-(3-(5-((3R,5S)-3-hydroxy-1-methyl-2-oxo-5-(trifluoromethyl)pyrrolidin-3-yl)isoxazol-3-yl)phenyl)picolinamide], the negative logarithm of the IC50 (pIC50) in assay [1] is greater than 7.00; in assay [2], less than 6.30.
On to `CN1CC[C@@](O)(c2cc(-c3cccc(-c4nc(C(N)=O)cc(C(F)(F)F)n4)c3)no2)C1=O` [Example 98, (R)-2-(3-(5-(3-Hydroxy-1-methyl-2-oxopyrrolidin-3-yl)isoxazol-3-yl)phenyl)-6-(trifluoromethyl)pyrimidine-4-carboxamide], for which the figures for the pIC50 in assay [1] and in assay [2] were greater than 7.00 and less than 6.30, respectively.
On the same counts, the results for `Cc1c(-c2cccc(-c3cc([C@]4(O)CCN(C)C4=O)on3)c2)nc(C(N)=O)n1C1CC1` [Example 122, (R)-1-Cyclopropyl-4-(3-(5-(3-hydroxy-1-methyl-2-oxopyrrolidin-3-yl)isoxazol-3-yl)phenyl)-5-methyl-1H-imidazole-2-carboxamide] are 6.30 to 7.00 and less than 6.30.
Taken in the same sequence, the figures for `CN1CC[C@@](O)(c2cc(-c3ccnc(-c4cccc(C(N)=O)n4)c3)no2)C1=O` [Example 168, (R)-4′-(5-(3-Hydroxy-1-methyl-2-oxopyrrolidin-3-yl)isoxazol-3-yl)-[2,2′-bipyridine]-6-carboxamide] were greater than 7.00 and less than 6.30.
On the same counts, the results for `CN1CC[C@@](O)(c2cc(-c3cccc(-c4nc(C(N)=O)c(CNc5ccn(C)n5)s4)c3)no2)C1=O` [Example 238, (R)-2-(3-(5-(3-Hydroxy-1-methyl-2-oxopyrrolidin-3-yl)isoxazol-3-yl)phenyl)-5-(((1-methyl-1H-pyrazol-3-yl)amino)methyl)thiazole-4-carboxamide] are greater than 7.00 and 6.30 to 7.00.
For `CN1CC[C@@](O)(c2cn(-c3cccc(-c4nc(C(N)=O)n5ccccc45)c3)nn2)C1=O` [Example 15, (R)-1-(3-(4-(3-Hydroxy-1-methyl-2-oxopyrrolidin-3-yl)-1H-1,2,3-triazol-1-yl)phenyl)imidazo[1,5-a]pyridine-3-carboxamide], the pIC50 in assay [1] and in assay [2] was greater than 7.00 in each case.
Consider `Cc1nc(N)c2nc(-c3ccc(-c4cc([C@]5(O)CCN(C)C5=O)on4)o3)ccc2n1` [Example 159, (R)-3-(3-(5-(4-Amino-2-methylpyrido[3,2-d]pyrimidin-6-yl)furan-2-yl)isoxazol-5-yl)-3-hydroxy-1-methylpyrrolidin-2-one], for which the pIC50 in assay [1] was greater than 7.00; in assay [2], 6.30 to 7.00.
Taken in the same sequence, the figures for `CN1CC[C@@](O)(c2cc(-c3cccc(-c4nc(C(N)=O)c(CN)s4)c3)no2)C1=O` [Example 237, (R)-5-(Aminomethyl)-2-(3-(5-(3-hydroxy-1-methyl-2-oxopyrrolidin-3-yl)isoxazol-3-yl)phenyl)thiazole-4-carboxamide] were greater than 7.00 and less than 6.30.
Taken in the same sequence, the figures for `Cc1cn2cc(-c3cccc(-c4cc([C@]5(O)CCN(C)C5=O)on4)c3)ccc2n1` [Example 79, (R)-3-Hydroxy-1-methyl-3-(3-(3-(2-methylimidazo[1,2-a]pyridin-6-yl)phenyl)isoxazol-5-yl)pyrrolidin-2-one] were less than 6.30 and less than 6.30.
On the same counts, the results for `Cc1cc(N2CCC[C@H](c3cc([C@]4(O)CCN(C)C4=O)on3)C2)nc2c(N)ncnc12` (single isomer, unassigned) [Example 200] are greater than 7.00 and less than 6.30.
`[2H]c1nc(N)c2nc(-c3cccc(-c4nc([C@]5(O)CCN(C)C5=O)co4)c3)ccc2n1` (single isomer, unassigned) [Example 41]: the pIC50 in assay [1] and in assay [2] was less than 6.30 in each case.
